Experiment: Calcium liability (tolerance test in mice)
Assay type: in vivo
Details: mice (25-30 g), daily subcutaneous administration for 4 consecutive days; dose giving zero weight gain over the 5-day treatment period
Description: Calcium Liability (Tolerance Test in Mice):
This test gives a global picture of calcemic liability. Profound changes in calcium homeostasis strongly affect the weight development of the animals. This parameter was used as a primary test for tolerance. Mice (25-30 g body weight) received daily subcutaneous administrations of the vitamin D derivative for 4 consecutive days. Body weight was registered just before and at the end of a 5-day treatment period. The “highest tolerated dose” (HTDsc) in mice is the dose which results in zero weight gain during this treatment period.

Compound: C=C1/C(=C\C=C2/CCC[C@]3(C)[C@@H]([C@H](C)CCCC(C)(C)O)CC[C@@H]23)C[C@@H](O)C[C@@H]1O [calcitriol]
- HTDs.c. highest tolerated dose without weight loss: 1 µg/kg

From patent US20040077728A1, “Retiferol derivatives and their use in the treatment of skin diseases or conditions associated with photodamage” (priority 2000, published 2004)
